Where a name gives a salt, the structure may show the parent alone.
Legend:
NK-1 = target: T1, NK-1 (Homo sapiens, UniProt P25103); test: NK1 radioligand binding assay ([125I]Substance P, U373 membranes); conditions: U373 cell membranes, 200 pM [125I]Substance P, 1 hour at room temperature
T1 construct: 30 ul/well of a 2×U373 membrane preparation
Method: (§1) NK-1 Binding assay. Crude membrane suspensions were prepared for the NK1 and SERT radioligand binding assays from U373 cells or recombinant HEK-293 cells expressing hSERT, respectively. Cells were harvested from T-175 flasks as follows. The medium is removed from the flasks and the cells rinsed with HBSS without Ca and without Mg. The cells are then incubated for 5-10 minutes in 10 mM Tris-Cl, pH 7.5, 5 mM EDTA before the cells are lifted with a combination of pipetting and scraping, as needed. To prepare membranes, the cell suspension is collected into centrifuge bottles and homogenized for 30 seconds with a Polytron homogenizer. The suspension is centrifuged for 30 min@32,000×g, 4° C., then the supernatant is decanted and the pellet resuspended and homogenized in 50 mM Tris-Cl, pH 7.5, 1 mM EDTA for 10 seconds. The suspension is then centrifuged again for 30 min@32,000×g, 4° C. The supernatant is decanted and the pellet resuspended in 50 mM Tris-Cl, pH 7.5, 1 mM EDTA and briefly homogenized. A Bradford assay (Bio-rad) is performed and the membrane preparation diluted to 2 mg/ml with 50 mM Tris-Cl, pH 7.5, 1 mM EDTA. Aliquots are prepared, and then frozen and stored at −80° C.
NK1 radioligand binding assay. Compounds are dissolved in 100% DMSO at a concentration 100× the desired highest assay concentration, serially diluted 1:3 in 100% DMSO, and 0.6 ul/well of each solution is dispensed to a Nunc polypropylene, round bottom, 384 well plate. 100% inhibition is defined with 0.6 ul/well of 1 mM L-733,060 (Sigma L-137) dissolved in DMSO. 30 ul/well of a 2×U373 membrane preparation (267 ug/ml in 100 mM Tris-Cl, pH 7.5, 6 mM MgCl2, 0.2% (v/v) Sigma mammalian protease inhibitor cocktail (Sigma P-8340), and 4 ug/ml chymostatin, Sigma C-7268) and 30 ul/well of a 2× radioligand solution (400 pM [^125I]Substance P (Perkin ElmerNEX-190) in 1% (w/v) BSA (Sigma A-2153), 0.1 mg/ml bacitracin, Sigma B-0125) are added to the well and the reaction incubated for 1 hour at room temperature. The contents of the assay plate are then transferred to a Millipore MultiscreenHTS GF/B filter plate which has been pretreated with 0.5% PEI for at least one hour. The plate is vacuum filtered and washed with 7 washes of 100 ul/well of 20 mM Tris-Cl, pH 7.5, 0.5% (w/v) BSA chilled to 4° C. The filtration and washing is completed in less than 90 s. The plates are air-dried overnight, 12 ul/well of MicroScint scintillation fluid added, and the plates counted in a Trilux.
(§2) Data analysis. The raw data are normalized to percent inhibition using control wells defining 0% (DMSO only) and 100% (selective inhibitor) inhibition which are run on each plate. Each plate is run in triplicate, and the concentration response curve thus generated is fit using the four-parameter dose response equation, Y=Bottom+(Top-Bottom)/(1+10^((LogIC50−X)*HillSlope)) in order to determine the IC50 value for each compound. The radioligand concentration chosen for each assay corresponds to the Kd concentration determined through saturation binding analysis for each assay.

hSERT = hSERT (Homo sapiens, UniProt P31645); test: SERT radioligand binding assay ([125I]RTI-55, HEK-hSERT membranes); conditions: HEK-293 hSERT membranes, 260 pM [125I]RTI-55, 1 hour at room temperature; read-out: SERT IC50
Method: as §1
SERT radioligand binding assay. Compounds are dissolved in 100% DMSO at a concentration 100× the desired highest assay concentration, serially diluted 1:3 in 100% DMSO, and 0.4 ul/well of each solution is dispensed to a Nunc polypropylene, round bottom, 384 well plate. 100% inhibition is defined with 0.4 ul/well of 1 mM fluoxetine (Sigma F-132) dissolved in DMSO. 20 ul/well of a 2× HEK-hSERT membrane preparation (15 ug/ml in 50 mM Tris-Cl, pH 7.5, 120 mM NaCl, 5mM KCl) and 20 ul/well of a 2× radioligand solution (520 pM [^125I]RTI-55 (Perkin-Elmer NEX-272) in 50 mM Tris-Cl, pH 7.5, 120 mM NaCl, 5mM KCl) are added to each well and the reaction incubated for 1 hour at room temperature. The contents of the assay plate are then transferred to a Millipore MultiscreenHTs GF/B filter plate which has been pretreated with 0.5% PEI for at least one hour. The plate is vacuum filtered and washed with 7 washes of 100 ul/well of 50 mM Tris-Cl, pH 7.5, 120 mM NaCl, 5 mM KCl chilled to 4° C. The filtration and washing is completed in less than 90 s. The plates are air-dried overnight, 12 ul/well of MicroScint scintillation fluid added, and the plates counted in a Trilux.
as §2

hSERT, sequence (P31645 whole entry): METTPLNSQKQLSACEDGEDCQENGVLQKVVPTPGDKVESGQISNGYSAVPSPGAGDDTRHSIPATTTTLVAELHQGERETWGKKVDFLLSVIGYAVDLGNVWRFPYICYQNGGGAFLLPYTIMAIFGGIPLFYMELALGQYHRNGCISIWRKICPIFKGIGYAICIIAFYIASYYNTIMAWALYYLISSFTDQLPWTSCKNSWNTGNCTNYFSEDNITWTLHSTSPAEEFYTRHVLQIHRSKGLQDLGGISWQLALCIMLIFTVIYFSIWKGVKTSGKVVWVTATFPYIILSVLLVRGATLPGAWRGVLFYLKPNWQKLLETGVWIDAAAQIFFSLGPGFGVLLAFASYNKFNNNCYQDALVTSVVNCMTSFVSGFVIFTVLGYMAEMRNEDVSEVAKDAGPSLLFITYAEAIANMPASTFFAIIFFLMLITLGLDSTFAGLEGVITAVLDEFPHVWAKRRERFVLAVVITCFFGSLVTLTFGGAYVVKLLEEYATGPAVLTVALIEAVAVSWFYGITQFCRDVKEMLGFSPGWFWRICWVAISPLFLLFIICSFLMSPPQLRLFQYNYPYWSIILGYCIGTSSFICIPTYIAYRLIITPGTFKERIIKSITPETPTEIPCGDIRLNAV
T1 sequence (P25103 whole entry): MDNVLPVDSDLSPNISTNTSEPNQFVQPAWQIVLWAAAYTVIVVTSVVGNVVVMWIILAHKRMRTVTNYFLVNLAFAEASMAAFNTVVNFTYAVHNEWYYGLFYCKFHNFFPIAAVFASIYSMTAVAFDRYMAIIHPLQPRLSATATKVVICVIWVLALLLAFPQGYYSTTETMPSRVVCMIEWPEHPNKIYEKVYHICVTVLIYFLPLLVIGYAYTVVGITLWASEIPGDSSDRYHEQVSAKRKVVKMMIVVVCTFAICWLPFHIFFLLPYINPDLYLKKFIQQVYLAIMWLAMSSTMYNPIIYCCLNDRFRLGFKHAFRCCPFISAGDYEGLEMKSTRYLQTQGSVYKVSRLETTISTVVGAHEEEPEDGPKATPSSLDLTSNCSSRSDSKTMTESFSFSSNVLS

## Cc1cc(C(C)OCC2(c3ccc(F)cc3)CCN(C)CC2)c2nn(CC(F)F)cc2c1 (racemic) [Example 61, (±)-2-(2,2-Difluoroethyl)-7-(1-((4-(4-fluorophenyl)-1-methylpiperidin-4-yl)methoxy)ethyl)-5-methyl-2H-indazole]
NK-1
  IC50: 0.01 to 100 nM
hSERT
  IC50: 0.01 to 100 nM

## Cc1cc(C(C)OCC2(c3ccc(F)cc3)CCN(C)CC2)c2c(cnn2CC2CC2)c1 (racemic) [Example 62, (±)-1-(Cyclopropylmethyl)-7-(1-((4-(4-fluorophenyl)-1-methylpiperidin-4-yl)methoxy)ethyl)-5-methyl-1H-indazole]
NK-1
  IC50: 0.01 to 100 nM
hSERT
  IC50: 0.01 to 100 nM

## Cc1cc(C(C)OCC2(c3ccc(F)cc3)CCN(C)CC2)c2nn(CC3CC3)cc2c1 (racemic) [Example 63, (±)-2-(Cyclopropylmethyl)-7-(1-((4-(4-fluorophenyl)-1-methylpiperidin-4-yl)methoxy)ethyl)-5-methyl-2H-indazole]
NK-1
  IC50: 0.01 to 100 nM
hSERT
  IC50: 0.01 to 100 nM

## Cc1cc(C(C)OCC2(c3ccc(F)cc3)CCN(C)CC2)c2c(cnn2C2CC2)c1 (racemic) [Example 64, (±)-1-Cyclopropyl-7-(1-((4-(4-fluorophenyl)-1-methylpiperidin-4-yl)methoxy)ethyl)-5-methyl-1H-indazole]
NK-1
  IC50: 0.01 to 100 nM
hSERT
  IC50: 0.01 to 100 nM

## CC(OCC1(c2ccccc2)CCN(C)CC1)c1cc(C(F)(F)F)cc2cc[nH]c12 (racemic) [Example 70, (±)-7-(1-((1-Methyl-4-phenylpiperidin-4-yl)methoxy)ethyl)-5-(trifluoromethyl)-1H-indole]
NK-1
  IC50: 0.01 to 100 nM
hSERT
  IC50: 100 to 300 nM

## CC(OCC1(c2ccccc2)CCN(C)CC1)c1cc(C(F)(F)F)cc2ccn(C)c12 (racemic) [Example 71, (±)-1-Methyl-7-(1-((1-methyl-4-phenylpiperidin-4-yl)methoxy)ethyl)-5-(trifluoromethyl)-1H-indole]
NK-1
  IC50: 0.01 to 100 nM
hSERT
  IC50: 0.01 to 100 nM

## CC(OCC1(c2ccc(F)cc2)CCN(C)CC1)c1cc(C(F)(F)F)cc2cc[nH]c12 (racemic) [Example 72, (±)-7-(1-((4-(4-Fluorophenyl)-1-methylpiperidin-4-yl)methoxy)ethyl)-5-(trifluoromethyl)-1H-indole]
NK-1
  IC50: 0.01 to 100 nM
hSERT
  IC50: 0.01 to 100 nM

## CC(OCC1(c2ccc(F)cc2)CCN(C)CC1)c1cc(C(F)(F)F)cc2ccn(C)c12 (racemic) [Example 73, (±)-7-(1-((4-(4-Fluorophenyl)-1-methylpiperidin-4-yl)methoxy)ethyl)-1-methyl-5-(trifluoromethyl)-1H-indole]
NK-1
  IC50: 0.01 to 100 nM
hSERT
  IC50: 0.01 to 100 nM

## CC(OCC1(c2ccc(F)cc2)CCN(C)CC1)c1cc(C(F)(F)F)cc2c1NC(=O)C2 (racemic) [Example 123, (±)-7-(1-((4-(4-fluorophenyl)-1-methylpiperidin-4-yl)methoxy)ethyl)-5-(trifluoromethyl)indolin-2-one]
NK-1
  IC50: 0.01 to 100 nM
hSERT
  IC50: 0.01 to 100 nM

## CC(OCC1(c2ccc(F)cc2)CCN(C)CC1)c1cc(Cl)cc2c(C#N)c[nH]c12 (racemic) [Example 124, (±)-5-chloro-7-(1-((4-(4-fluorophenyl)-1-methylpiperidin-4-yl)methoxy)ethyl)-1H-indole-3-carbonitrile]
NK-1
  IC50: 0.01 to 100 nM
hSERT
  IC50: 0.01 to 100 nM

## Cc1c[nH]c2c(C(C)OCC3(c4ccc(F)cc4)CCN(C)CC3)cc(C(F)(F)F)cc12 (racemic) [Example 126, (±)-7-(1-((4-(4-fluorophenyl)-1-methylpiperidin-4-yl)methoxy)ethyl)-3-methyl-5-(trifluoromethyl)-1H-indole]
NK-1
  IC50: 0.01 to 100 nM
hSERT
  IC50: 0.01 to 100 nM

## CC(OCC1(c2ccc(F)cc2)CCN(C)CC1)c1cc(C(F)(F)F)cc2c1ccn2C (racemic) [Example 127, (±)-4-(1-((4-(4-fluorophenyl)-1-methylpiperidin-4-yl)methoxy)ethyl)-1-methyl-6-(trifluoromethyl)-1H-indole]
NK-1
  IC50: 0.01 to 100 nM
hSERT
  IC50: 0.01 to 100 nM

## CC(OCC1(c2ccc(F)cc2)CCN(C)CC1)c1cc(C(F)(F)F)cc2[nH]ccc12 (racemic) [Example 128, (±)-4-(1-((4-(4-fluorophenyl)-1-methylpiperidin-4-yl)methoxy)ethyl)-6-(trifluoromethyl)-1H-indole]
NK-1
  IC50: 0.01 to 100 nM
hSERT
  IC50: 0.01 to 100 nM

## CC(OCC1(c2ccc(F)cc2)CCNCC1)c1cc(C(F)(F)F)cc2c1CC(=O)N2 (racemic) [Example 129, (±)-4-(1-((4-(4-fluorophenyl)piperidin-4-yl)methoxy)ethyl)-6-(trifluoromethyl)indolin-2-one, TFA]
NK-1
  IC50: 100 to 300 nM
hSERT
  IC50: 0.01 to 100 nM

## CC(OCC1(c2ccc(F)cc2)CCNCC1)c1cc(C(F)(F)F)cc2cn[nH]c12 (single isomer, unassigned) [Example 22, 7-(1-((4-(4-Fluorophenyl)piperidin-4-yl)methoxy)ethyl)-5-(trifluoromethyl)-1H-indazole]
NK-1
  IC50: 100 to 300 nM
hSERT
  IC50: 0.01 to 100 nM

## CC(OCC1(c2ccc(F)cc2)CCN(C)CC1)c1cc(C(F)(F)F)cc2cn[nH]c12 (single isomer, unassigned) [Example 23, 7-(1-((4-(4-Fluorophenyl)-1-methylpiperidin-4-yl)methoxy)ethyl)-5-(trifluoromethyl)-1H-indazole]
NK-1
  IC50: 100 to 300 nM
hSERT
  IC50: 0.01 to 100 nM

## CC(OCC1(c2ccc(F)cc2)CCNCC1)c1cc(C(F)(F)F)cc2cn[nH]c12 (single isomer, unassigned) [Example 24, 7-(1-((4-(4-Fluorophenyl)piperidin-4-yl)methoxy)ethyl)-5-(trifluoromethyl)-1H-indazole]
NK-1
  IC50: 0.01 to 100 nM
hSERT
  IC50: 0.01 to 100 nM

## CC(OCC1(c2ccc(F)cc2)CCN(C)CC1)c1cc(C(F)(F)F)cc2cn[nH]c12 (single isomer, unassigned) [Example 25, 7-(1-((4-(4-Fluorophenyl)-1-methylpiperidin-4-yl)methoxy)ethyl)-5-(trifluoromethyl)-1H-indazole]
NK-1
  IC50: 0.01 to 100 nM
hSERT
  IC50: 0.01 to 100 nM

## CC(OCC1(c2ccc(F)cc2)CCNCC1)c1cc(C(F)(F)F)cc2cnn(C)c12 (single isomer, unassigned) [Example 26, 7-(1-((4-(4-Fluorophenyl)piperidin-4-yl)methoxy)ethyl)-1-methyl-5-(trifluoromethyl)-1H-indazole]
NK-1
  IC50: 100 to 300 nM
hSERT
  IC50: 0.01 to 100 nM

## CC(OCC1(c2ccc(F)cc2)CCN(C)CC1)c1cc(C(F)(F)F)cc2cnn(C)c12 (single isomer, unassigned) [Example 27, 7-(1-((4-(4-Fluorophenyl)-1-methylpiperidin-4-yl)methoxy)ethyl)-1-methyl-5-(trifluoromethyl)-1H-indazole]
NK-1
  IC50: 100 to 300 nM
hSERT
  IC50: 0.01 to 100 nM

## CC(OCC1(c2ccc(F)cc2)CCNCC1)c1cc(C(F)(F)F)cc2cn(C)nc12 (single isomer, unassigned) [Example 28, 7-(1-((4-(4-Fluorophenyl)piperidin-4-yl)methoxy)ethyl)-2-methyl-5-(trifluoromethyl)-2H-indazole]
NK-1
  IC50: > 300 nM
hSERT
  IC50: 100 to 300 nM

— patent US8026257B2 (Bristol-Myers Squibb Company, priority 2007, dated 2011)
